# Measured values published in patent US20140275108A1, “NOVEL BENZENESULFONAMIDE COMPOUNDS, METHOD FOR SYNTHESIZING SAME, AND USE THEREOF IN MEDICINE AS WELL AS IN COSMETICS” (GALDERMA RESEARCH & DEVELOPMENT, priority 2013, published 2014).
# Read-outs that look alike come from different tables or passages of the source.
# Assays:
# MMP-12 = MMP-12 (Homo sapiens, UniProt P39900); experiment: Inhibition of MMPs, MMP-12; assay type: biochemical; conditions: Table 3, Example 30
# Excerpt: (§1) Several compounds were dose-response tested on TACE and MMP-1, MMP-3, and MMP-12 according to the same protocol as that described above.
# other MMPs = experiment: Inhibition of other MMPs (data not shown); assay type: biochemical
# Excerpt: as §1
# TNFα = experiment: Mouse ear edema model, TNFα secretion by ear skin cells; assay type: in vivo, Balb/c mouse; conditions: ear tissue biopsy, topical Day 1 to Day 7; FIG. 2A
# Method: (§2) P. acnes stimulates the production of inflammatory cytokines, such as TNFα and interleukins. In this Example, the mouse ear edema model was used to investigate inflammation induced by P. acnes. This is a chronic inflammation model involving intense innate and adaptive immunity. The thickness of the ear is measured each day to determine the amount of swelling caused by P. acnes. The amount of TNFα and IL-6 secreted is determined.
# (§3) After one intradermal injection of live P. acnes on Day 0, each of the following preparations was topically applied once a day on the ear of a Balb/c mouse over the course of 7 days (from Day 1 to Day 7). […]
# (§4) Preparations 1-3 served as controls for comparison with preparations 4-7. […] The thickness of the ear was measured each day with a caliper from day 1 until day 8. The amount of TNFα and IL-6 secreted by the skin cells was determined using tissue biopsy samples from the mouse ear. TNF-α and Il-6 were measured using the mouse BD™ Cytometric Bead Array Flex (BD Bioscience, Dosage by FacsArray).
# [1] = system: edema induced by P. acnes; experiment: Mouse ear edema model, cutaneous inflammation induced by P. acnes (ear thickness); assay type: in vivo, Balb/c mouse; conditions: topical on mouse ear, Day 1 to Day 7, after intradermal live P. acnes; Compound D 0.1%, 0.3%, 0.6% once a day, 0.6% twice a day; CD0153F 0.01% once a day; FIG. 1
# Method: as §2, §3, §4
# IL-6 = experiment: Mouse ear edema model, IL-6 secretion by ear skin cells; assay type: in vivo, Balb/c mouse; conditions: ear tissue biopsy, topical Day 1 to Day 7; FIG. 2B
# Method: as §2, §3, §4
# MMP-1 = biological target: T1, MMP-1 (Homo sapiens, UniProt P03956); experiment: Selectivity assay, MMP-1; assay type: biochemical; conditions: Table 3, Example 30
# T1 construct: purchased Calbiochem
# T1 sequence (P03956 100-469): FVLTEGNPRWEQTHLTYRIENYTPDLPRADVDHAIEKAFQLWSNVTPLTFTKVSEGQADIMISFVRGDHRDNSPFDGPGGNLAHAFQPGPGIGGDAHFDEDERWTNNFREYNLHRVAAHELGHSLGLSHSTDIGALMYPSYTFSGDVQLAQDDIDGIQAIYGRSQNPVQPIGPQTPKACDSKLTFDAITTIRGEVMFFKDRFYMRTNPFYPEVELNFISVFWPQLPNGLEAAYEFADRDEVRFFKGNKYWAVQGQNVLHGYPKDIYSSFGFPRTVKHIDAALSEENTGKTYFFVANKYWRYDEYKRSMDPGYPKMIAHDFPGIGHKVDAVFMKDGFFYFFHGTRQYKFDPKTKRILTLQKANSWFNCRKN
# TACE enzyme = TACE enzyme (Homo sapiens, UniProt P78536); experiment: Enzymatic assay for TACE inhibition (fluorescent substrate); assay type: biochemical
# MMP-3 = biological target: T2, MMP-3 (Homo sapiens, UniProt P08254); experiment: Selectivity assay, MMP-3; assay type: biochemical; conditions: Table 3, Example 30
# T2 construct: purchased Calbiochem
# Excerpt: The enzymes are purchased from Calbiochem.
# as §1
# [2] = Table 3, Example 30, read-out: TACE = ADAM 17 (IC50 nM)
# Sequence of TACE enzyme (P78536 215-477): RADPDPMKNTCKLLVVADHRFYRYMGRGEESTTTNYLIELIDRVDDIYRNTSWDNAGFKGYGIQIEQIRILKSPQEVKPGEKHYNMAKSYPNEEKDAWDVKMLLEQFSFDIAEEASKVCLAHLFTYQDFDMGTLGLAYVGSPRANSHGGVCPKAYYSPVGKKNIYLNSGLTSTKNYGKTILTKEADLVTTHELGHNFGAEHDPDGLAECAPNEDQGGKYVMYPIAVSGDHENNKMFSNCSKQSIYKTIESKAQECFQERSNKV
# Sequence of MMP-12 (P39900 106-470): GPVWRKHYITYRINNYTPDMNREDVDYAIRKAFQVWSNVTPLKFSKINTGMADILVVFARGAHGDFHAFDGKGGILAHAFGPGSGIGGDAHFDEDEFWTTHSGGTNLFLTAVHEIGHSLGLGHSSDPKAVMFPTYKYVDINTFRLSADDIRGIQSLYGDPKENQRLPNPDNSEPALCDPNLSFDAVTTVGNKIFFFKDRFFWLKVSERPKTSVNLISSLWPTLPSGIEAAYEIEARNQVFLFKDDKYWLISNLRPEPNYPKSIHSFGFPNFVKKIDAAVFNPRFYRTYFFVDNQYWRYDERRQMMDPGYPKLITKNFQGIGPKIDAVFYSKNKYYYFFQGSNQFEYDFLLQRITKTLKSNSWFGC
# T2 sequence (P08254 100-477): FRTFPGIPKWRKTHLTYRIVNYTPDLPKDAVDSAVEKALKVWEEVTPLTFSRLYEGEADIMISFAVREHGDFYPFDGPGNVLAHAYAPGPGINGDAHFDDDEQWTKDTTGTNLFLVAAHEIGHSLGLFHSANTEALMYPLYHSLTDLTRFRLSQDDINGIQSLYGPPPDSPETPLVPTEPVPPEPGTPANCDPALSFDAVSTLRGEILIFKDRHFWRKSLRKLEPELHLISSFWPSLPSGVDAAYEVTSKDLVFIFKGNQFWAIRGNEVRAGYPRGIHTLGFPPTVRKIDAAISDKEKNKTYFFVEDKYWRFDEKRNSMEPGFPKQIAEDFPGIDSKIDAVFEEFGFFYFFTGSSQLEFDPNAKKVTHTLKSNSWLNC
smiles,measurement,setting,value
Cc1cc(COc2ccc(S(=O)(=O)NC[C@@H](C(=O)NO)N3CCCCC3)cc2)c2ccccc2n1 [Compound A],IC50,MMP-12,977 nM
same,effect on other MMPs,other MMPs,no effect
Cc1cc(COc2ccc(S(=O)(=O)NC[C@@H](C(=O)NO)N3CCC(S(=O)(=O)C(C)C)CC3)cc2)c2ccccc2n1 [Compound D],secretion of TNFα induced by P. acnes,TNFα,greatly reduced
same,inhibition of edema (ear swelling) induced by P. acnes,[1],did not inhibit the edema
same,secretion of IL-6 induced by P. acnes,IL-6,moderately reduced
same,IC50,MMP-1,969 nM
same,IC50,TACE enzyme; [2],33 nM
same,IC50,MMP-3,574 nM
"CC#CCOc1ccc(S(=O)(=O)N(C)CC(C(=O)NO)N2CCN(S(C)(=O)=O)CC2)cc1 (centres unmarked) [Example 1, 3-[(4-but-2-ynyloxybenzenesulfonyl)methylamino]-N-hydroxy-2-(4-methanesulfonylpiperazin-1-yl)propionamide]",% TACE inhibition at 10 μM,TACE enzyme,100%
Cc1cc(COc2ccc(S(=O)(=O)NC[C@@H](C(=O)NO)N3CCC(Cc4ccccc4)CC3)cc2)c2ccccc2n1 [C],IC50,TACE enzyme; [2],62 nM
Cc1cc(COc2ccc(S(=O)(=O)NC[C@@H](C(=O)NO)N3CCOCC3)cc2)c2ccccc2n1 [B],IC50,MMP-12,226 nM
same,effect on other MMPs,other MMPs,no effect
same,IC50,TACE enzyme; [2],51 nM
"CN(C[C@@H](C(=O)NO)N1CCN(S(C)(=O)=O)CC1)S(=O)(=O)c1ccc(OCc2ccccc2)cc1 [Example 4, (S)-3-[(4-Benzyloxybenzenesulfonyl)methylamino]-N-hydroxy-2-(4-methanesulfonylpiperazin-1-yl)propionamide]",% TACE inhibition at 10 μM,TACE enzyme,95%
same,IC50,"TACE enzyme; Table 1, read-out: IC50 - TACE",497 nM
"CCCCC(=O)O[C@]1(C(=O)CO)[C@@H](C)C[C@H]2[C@@H]3CCC4=CC(=O)C=C[C@]4(C)[C@@]3(F)[C@@H](O)C[C@@]21C [CD0153F, betamethasone valerate, reference compound]",secretion of TNFα induced by P. acnes,TNFα,inhibiting TNFα secretion
same,inhibition of edema (ear swelling) induced by P. acnes,[1],inhibition of inflammation
